Data published in PubChem BioAssay AID248 (DTP/NCI, 2004).
Several values for one entry are separate records, joined by “and”; a condition that tells them apart may be missing. Equal values may be shown once. Toxic doses and inconclusive results are not listed. Rule as the data show it: active = T/C of 150% or more; inactive = T/C below 125%.

System: L1210 leukemia ip in BDF1 mice, survival T/C
Experiment: NCI In Vivo Anticancer Drug Screen. Data for tumor model L1210 Leukemia (intraperitoneal) in B6D2F1 (BDF1) mice
Settings: endpoint: mean survival time, higher = longer survival
Procedure, shortened: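 Survival endpoint. Drug-treated group vs vehicle group, expressed as T divided by C. Tumor passaged by transplantation.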

[1] = dose: 100.0 mg/kg/injection, schedule: Q01DX001 (ip), vehicle: carboxymethylcellulose (CMC)
[2] = dose: 200.0 mg/kg/injection, schedule: Q01DX001 (ip), vehicle: carboxymethylcellulose (CMC)
[3] = dose: 400.0 mg/kg/injection, schedule: Q01DX001 (ip), vehicle: carboxymethylcellulose (CMC)
[4] = dose: 75.0 mg/kg/injection, schedule: Q01DX001 (ip), vehicle: other
[5] = dose: 100.0 mg/kg/injection, schedule: Q04DX003 (ip), vehicle: saline
[6] = dose: 200.0 mg/kg/injection, schedule: Q04DX003 (ip), vehicle: saline
[7] = dose: 400.0 mg/kg/injection, schedule: Q04DX003 (ip), vehicle: saline
[8] = dose: 50.0 mg/kg/injection, schedule: Q01DX009 (ip), vehicle: saline with Tween-80
[9] = dose: 100.0 mg/kg/injection, schedule: Q01DX009 (ip), vehicle: saline with Tween-80
[10] = dose: 100.0 mg/kg/injection, schedule: Q01DX009 (ip), vehicle: Klucel (hydroxypropylcellulose) (HPC)
[11] = dose: 100.0 mg/kg/injection, schedule: Q04DX003 (ip), vehicle: Klucel (hydroxypropylcellulose) (HPC)
[12] = dose: 200.0 mg/kg/injection, schedule: Q01DX009 (ip), vehicle: Klucel (hydroxypropylcellulose) (HPC)
[13] = dose: 200.0 mg/kg/injection, schedule: Q04DX003 (ip), vehicle: Klucel (hydroxypropylcellulose) (HPC)
[14] = dose: 400.0 mg/kg/injection, schedule: Q01DX009 (ip), vehicle: Klucel (hydroxypropylcellulose) (HPC)
[15] = dose: 400.0 mg/kg/injection, schedule: Q04DX003 (ip), vehicle: Klucel (hydroxypropylcellulose) (HPC)
[16] = dose: 100.0 mg/kg/injection, schedule: Q01DX001 (ip), vehicle: saline
[17] = dose: 200.0 mg/kg/injection, schedule: Q01DX001 (ip), vehicle: saline
[18] = dose: 400.0 mg/kg/injection, schedule: Q01DX001 (ip), vehicle: saline
[19] = dose: 100.0 mg/kg/injection, schedule: Q04DX003 (ip), vehicle: saline with Tween-80
[20] = dose: 200.0 mg/kg/injection, schedule: Q04DX003 (ip), vehicle: saline with Tween-80
[21] = dose: 400.0 mg/kg/injection, schedule: Q04DX003 (ip), vehicle: saline with Tween-80

Measured: T/C

Cc1ccccc1-c1nc2c(N)nc(N)nc2nc1N
inactive: dose: 25.25 mg/kg/injection, schedule: Q01DX Z (ip), vehicle: carboxymethylcellulose (CMC) 104 % of control | dose: 50.0 mg/kg/injection, schedule: Q01DX001 (ip), vehicle: carboxymethylcellulose (CMC) 101 % of control | dose: 50.5 mg/kg/injection, schedule: Q01DX Z (ip), vehicle: carboxymethylcellulose (CMC) 106 % of control | dose: 79.0 mg/kg/injection, schedule: Q04DX002 (ip), vehicle: Klucel (hydroxypropylcellulose) (HPC) 111 % of control | [1] 96 % of control | dose: 118.0 mg/kg/injection, schedule: Q04DX002 (ip), vehicle: Klucel (hydroxypropylcellulose) (HPC) 97 % of control | dose: 180.0 mg/kg/injection, schedule: Q04DX002 (ip), vehicle: Klucel (hydroxypropylcellulose) (HPC) 100 % of control | [2] 104 % of control | dose: 270.0 mg/kg/injection, schedule: Q04DX002 (ip), vehicle: Klucel (hydroxypropylcellulose) (HPC) 111 % of control | [3] 98 % of control | dose: 500.0 mg/kg/injection, schedule: Q01DX Z (ip), vehicle: methylcellulose (MC) 120 % of control | dose: 750.0 mg/kg/injection, schedule: Q01DX Z (ip), vehicle: methylcellulose (MC) 114 % of control | dose: 1000.0 mg/kg/injection, schedule: Q01DX Z (ip), vehicle: methylcellulose (MC) 101 % of control

O=C(O)C(Cl)(c1ccccc1)c1ccccc1
inactive: [4] 94 % of control | dose: 150.0 mg/kg/injection, schedule: Q01DX001 (ip), vehicle: other 101 % of control | dose: 300.0 mg/kg/injection, schedule: Q01DX001 (ip), vehicle: other 100 % of control

NC(=NCCCC(NCc1ccccc1)C(=O)O)N[N+](=O)[O-] (stereo not given)
inactive: dose: 75.0 mg/kg/injection, schedule: Q01DX009 (ip), vehicle: other 107 % of control | [5] 100 % of control | dose: 150.0 mg/kg/injection, schedule: Q01DX009 (ip), vehicle: other 111 % of control | [6] 102 % of control | dose: 300.0 mg/kg/injection, schedule: Q01DX009 (ip), vehicle: other 107 % of control | [7] 104 % of control | dose: 600.0 mg/kg/injection, schedule: Q01DX009 (ip), vehicle: other 105 % of control

CCCCCCCCCCCCCCCCOC(=O)C[n+]1cccc(C(N)=O)c1
inactive: [5] 92 % of control | [6] 99 % of control

O=C(NCCNC(c1ccccc1)C(NCCNC(=O)c1ccccc1)c1ccccc1)c1ccccc1 (stereo not given)
inactive: dose: 25.0 mg/kg/injection, schedule: Q01DX009 (ip), vehicle: saline with Tween-80 94 % of control | [8] 89 % of control | [9] 97 % of control and 89 % of control | dose: 400.0 mg/kg/injection, schedule: Q01DX009 (ip), vehicle: saline with Tween-80 89 % of control

COc1ccc(S(=O)(=O)NC(=O)NC(=O)CC=C(C)C)cc1
inactive: dose: 50.0 mg/kg/injection, schedule: Q04DX002 (ip), vehicle: Klucel (hydroxypropylcellulose) (HPC) 103 % of control | [10] 105 % of control | dose: 100.0 mg/kg/injection, schedule: Q04DX002 (ip), vehicle: Klucel (hydroxypropylcellulose) (HPC) 96 % of control | [11] 110 % of control | [12] 95 % of control | dose: 200.0 mg/kg/injection, schedule: Q04DX002 (ip), vehicle: Klucel (hydroxypropylcellulose) (HPC) 103 % of control | [13] 98 % of control | [14] 97 % of control | [15] 104 % of control

CC(=O)C1OC1(C)C (stereo not given)
inactive: [16] 108 % of control | dose: 100.0 mg/kg/injection, schedule: Q01DX009 (ip), vehicle: saline 105 % of control | [5] 108 % of control | [17] 103 % of control | dose: 200.0 mg/kg/injection, schedule: Q01DX009 (ip), vehicle: saline 104 % of control | [6] 102 % of control | [18] 104 % of control | dose: 400.0 mg/kg/injection, schedule: Q01DX009 (ip), vehicle: saline 104 % of control | [7] 102 % of control

O=C1CCCC2C1CCCC21OCCO1 (stereo not given)
inactive: [16] 96 % of control | [17] 96 % of control | [18] 96 % of control

c1ccc2c(c1)Cc1nc3ccccc3nc1-2
inactive: dose: 25.0 mg/kg/injection, schedule: Q01DX009 (ip), vehicle: water 93 % of control | dose: 50.0 mg/kg/injection, schedule: Q01DX009 (ip), vehicle: water 91 % of control | dose: 100.0 mg/kg/injection, schedule: Q01DX009 (ip), vehicle: water 101 % of control | dose: 200.0 mg/kg/injection, schedule: Q01DX009 (ip), vehicle: water 93 % of control | dose: 400.0 mg/kg/injection, schedule: Q01DX009 (ip), vehicle: water 96 % of control

OCCCCN=Cc1ccccc1O.OCCCCN=Cc1ccccc1O.[Cu]
inactive: dose: 9.5 mg/kg/injection, schedule: Q01DX001 (ip), vehicle: other 102 % of control | dose: 19.0 mg/kg/injection, schedule: Q01DX001 (ip), vehicle: other 108 % of control | dose: 38.0 mg/kg/injection, schedule: Q01DX001 (ip), vehicle: other 100 % of control | [4] 96 % of control

CCCCCCCCCCCCCCCCCC(=O)N/N=C/C=C/c1ccccc1
inactive: dose: 50.0 mg/kg/injection, schedule: Q01DX009 (ip), vehicle: Klucel (hydroxypropylcellulose) (HPC) 101 % of control | [10] 98 % of control | [12] 101 % of control and 91 % of control | [14] 100 % of control

COCc1nc2ccccc2[nH]1
inactive: [19] 106 % of control | [20] 97 % of control | [21] 93 % of control

O=C(N/N=C/c1cc(Cl)ccc1O)C(O)(c1ccccc1)c1ccccc1
inactive: [1] 106 % of control | [2] 97 % of control | [3] 101 % of control

CCC(CC)c1cccc2ccccc12
inactive: [16] 98 % of control | [17] 96 % of control | [18] 108 % of control

[NH-]C(CC(N)=O)C(=O)O.[NH-]C(CC(N)=O)C(=O)O.[Pd+2] (stereo not given)
inactive: [8] 93 % of control | [9] 101 % of control | dose: 100.0 mg/kg/injection, schedule: Q04DX002 (ip), vehicle: saline with Tween-80 93 % of control | dose: 200.0 mg/kg/injection, schedule: Q01DX009 (ip), vehicle: saline with Tween-80 108 % of control | dose: 200.0 mg/kg/injection, schedule: Q04DX002 (ip), vehicle: saline with Tween-80 97 % of control

O=S(=O)(O)c1ccc(-c2ccc(S(=O)(=O)O)cc2)cc1
inactive: dose: 88.8 mg/kg/injection, schedule: Q01DX Z (ip), vehicle: methylcellulose (MC) 98 % of control | dose: 133.0 mg/kg/injection, schedule: Q01DX Z (ip), vehicle: methylcellulose (MC) 90 % of control | dose: 200.0 mg/kg/injection, schedule: Q01DX Z (ip), vehicle: methylcellulose (MC) 86 % of control

OC(Nc1ncccn1)C(Cl)(Cl)Cl (stereo not given)
inactive: dose: 100.0 mg/kg/injection, schedule: Q01DX009 (ip), vehicle: saline sonified 96 % of control | [11] 95 % of control | dose: 200.0 mg/kg/injection, schedule: Q01DX009 (ip), vehicle: saline sonified 94 % of control | [13] 102 % of control | dose: 400.0 mg/kg/injection, schedule: Q01DX009 (ip), vehicle: saline sonified 89 % of control | [15] 101 % of control

CCC/C=C(/C=O)CC
inactive: dose: 100.0 mg/kg/injection, schedule: Q01DX001 (ip), vehicle: saline with Tween-80 100 % of control | dose: 200.0 mg/kg/injection, schedule: Q01DX001 (ip), vehicle: saline with Tween-80 96 % of control | dose: 400.0 mg/kg/injection, schedule: Q01DX001 (ip), vehicle: saline with Tween-80 96 % of control

O=C1NC(c2ccccc2)C(=O)NC1c1ccccc1 (stereo not given)
inactive: [19] 94 % of control | [20] 86 % of control | [21] 89 % of control

CCC[CH2][Sn]([CH2]C)([CH2]CCC)[CH2]CCC
inactive: [5] 93 % of control | [6] 93 % of control | [7] 95 % of control
